The structures appear in SMILES notation.

The test system of experiment [1] is 4-hit flies (non-GFP). The experiment in a line: Survival rate of 4-hit flies raised on agent diet. The note with it: in diet: 0.5 μM trametinib, 50 μM roseoflavin; raised at 25° C. for 13 days. The format is in vivo, Drosophila. How it is done:
Roseoflavin and trametinib were dissolved in DMSO (Sigma) to be stored at −20° C.
Agar (Wako), brewers' yeast (MPBio), yeast extract (Sigma Aldrich), Bacto Casitone (BD), sucrose (Wako), glucose (Wako), MgCl2 (Wako), CaCl2) (Wako), propionic acid (Wako), Mold Inhibitor (10% methyl-4-hydroxy benzoate in 95% ethanol: Wako) were dissolved in ultrapure water to produce a standard diet. While this was being warmed at 50° C., an agent (trametinib alone, or a combination of roseoflavin and trametinib) dissolved in DMSO was added thereto to be mixed, and the resultant was cooled to prepare an agent diet. Final concentrations in the diet of the respective compounds were set to 0.5 μM for trametinib, and 50 μM for roseoflavin.
The UAS-RasG12D, UAS-p53 shRNA, UAS-CycE, UAS-Med shRNA fly produced in Example 1 was crossbred with a Ser-gal4 fly (Bloomington Drosophila Stock Center), and the parent flies were caused to lay eggs for 2 days on the standard diet or the agent diet, and thus, 20 to 50 eggs per vial, of Ser-gal4; UAS-RasG12D, UAS-p53 shRNA, UAS-CycE, UAS-Med shRNA 4-hit flies (non-GFP) were obtained. These eggs were raised at 25° C. for 13 days, and survival rate of the 4-hit flies (non-GFP) raised on each diet was calculated by dividing the number of eclosed individuals by the total number of pupae.

For experiment [2], the system named is Capan-1. The experiment in a line: MTS assay, relative survival rate with roseoflavin. The format is cell-based, human. The note with it: RoF 0.1 to 10 μM, 24, 48 or 72 hours, ratio to solvent control at 72 hours. How it is done: (§1) Human pancreatic cancer cells were treated with roseoflavin (RoF), and a relative survival rate was calculated assuming that mitochondrial respiratory chain activity corresponded to the survival rate.
(§2) Human pancreatic cancer cell lines, MIAPaCa-2, PANC-1, and Capan-1 were used for performing MTS assay with RoF. All the cell lines were obtained from ATCC. Each of the cell lines was cultured with the following medium in the presence of 5% CO2 at 37° C. • MIAPaCa-2: Dulbecco's Modified Eagle's Medium (Nakalai Tesque) supplemented with 10% fetal bovine serum (Gibco) and 1% penicillin-streptomycin (Nakalai Tesque) • PANC-1: RPMI 1640 medium (Nakalai Tesque) supplemented with 10% fetal bovine serum (Gibco) and 1% penicillin-streptomycin (Nakalai Tesque) • Capan-1: IMDM medium (Iscove's Modified Dulbecco's Medium) (Nakalai Tesque) supplemented with 20% fetal bovine serum (Gibco) and 1% penicillin-streptomycin (Nakalai Tesque)
(§3) Roseoflavin (RoF) was prepared to 0 μM (DMSO alone), 0.1 mM, 0.3 mM, 1 mM, 3 mM, and 10 mM, and the resultants were respectively diluted with the medium by 1000 times to obtain agent solutions (RoF final concentration: 0 μM, 0.1 μM, 0.3 μM, 1 μM, 3 μM and […]).
(§4) In a 96 well plate, MIAPaCa-2 was seeded at 500 cells/well, PANC-1 was seeded at 2,000 cells/well, and Capan-1 was seeded at 10,000 cells/well (in 100 μL of the medium). After these were cultured for 1 day, the RoF agent solution at each concentration was added to the cells in the 96 well plate in an amount of 10 μL each (final concentration of DMSO: 0.1%). Each combination was tested in 3 wells. After the addition of the agent solution, the resultant was cultured in the presence of 5% CO2 at 37° C. for 24, 48 or 72 hours, and a cell survival rate was measured with MTS Assay (Cell Titer 96®, Promega). The survival rate was expressed as a ratio to that of the control (solvent alone) cultured for 72 hours.

The test system of experiment [3] is MIAPaCa-2. Kind of experiment: MTS assay, relative survival rate with roseoflavin. The format is cell-based, human. The note with it: RoF 0.1 to 10 μM, 24, 48 or 72 hours, ratio to solvent control at 72 hours. How it is done: as §1, §2, §3, §4
Background: Tetrazolium dyes change colour on reduction, which living cells bring about.

Experiment [4] deals with PANC-1. Kind of experiment: MTS assay, relative survival rate with roseoflavin. The format is cell-based, human. The note with it: RoF 0.1 to 10 μM, 24, 48 or 72 hours, ratio to solvent control at 72 hours. How it is done:
as §1, §2, §3, §4

Experiment [5] concerns RF pathway. The experiment in a line: Liquid chromatography mass spectrometry of RoF, RF, FMN and FAD within the cells. The format is cell-based, human. The note with it: MIAPaCa-2, PANC-1 and Capan-1; 10 μM RoF, 48 hours; vs DMSO control.
Experiment [6] deals with AsPC-1. Kind of experiment: Spheroid formation in three-dimensional methylcellulose culture. The format is cell-based, human. The note with it: 10 μM RoF, 1 nM Tr, day 21 of culture. How it is done: (§5) The pancreatic cancer cell lines (AsPC-1 and Capan-1) having 4-hit mutation were three-dimensionally cultured in methylcellulose-containing media.
(§6) In a 24 well plate (upper layer: 1.8% methylcellulose, lower layer: 0.48% agarose), AsPC-1 was seeded at 5×10^3 cells/well (in 100 μL of the medium). After culturing for 1 day (day 1), DMSO (control), 10 μM roseoflavin (RoF), 1 nM trametinib (Tr), or 10 μM RoF+1 nM Tr was respectively added to the 24 well plate (final concentration of DMSO: 0.1%). After adding the agent solution, the resultant was cultured in the presence of 5% CO2 at 37° C., and a culture fluid was added on day 14. The resultant was further cultured, and each group was photographed on day 21 to measure the size and the number of spheroids. It is noted that the following media were used for culturing the respective cell lines: • AsPC-1: RPMI 1640 medium (Nakalai Tesque) supplemented with 10% fetal bovine serum (Gibco) and 1% penicillin-streptomycin (Nakalai Tesque) • Capan-1: IMDM medium (Iscove's Modified Dulbecco's Medium) (Nakalai Tesque) supplemented with 20% fetal bovine serum (Gibco) and 1% penicillin-streptomycin (Nakalai Tesque)

Experiment [7] relates to Capan-1. Described as above. The format is cell-based, human. The note with it: 10 μM RoF, 1 nM Tr, day 21 of culture. How it is done:
as §5, §6

On to `CC(=O)Nc1cccc(-n2c(=O)n(C3CC3)c(=O)c3c(Nc4ccc(I)cc4F)n(C)c(=O)c(C)c32)c1` [trametinib], for which, in experiment [1], the “improvement of survival rate of 4-hit flies (eclosed individuals / total pupae)” value is “about 10%”.
For the molecule `Cc1cc2nc3c(=O)[nH]c(=O)nc-3n(C[C@H](O)[C@H](O)[C@H](O)CO)c2cc1N(C)C` [roseoflavin], the “relative survival rate (mitochondrial respiratory chain activity)” value (“relative survival rate” for short) in experiment [2] is on record as “deteriorated mitochondrial respiratory chain activity in a dose dependent manner to decrease the relative survival rate”. The “relative survival rate” value in experiment [3] is given as “deteriorated mitochondrial respiratory chain activity in a dose dependent manner to decrease the relative survival rate”. In addition, the “relative survival rate” value in experiment [4] is “deteriorated mitochondrial respiratory chain activity in a dose dependent manner to decrease the relative survival rate”. In addition, in experiment [5], the “amount of FAD (flavin adenine dinucleotide) within the cells” value was “smaller than those in the control”, the “amount of FMN (flavin mononucleotide) within the cells” value was “smaller than those in the control” and the “amount of RF (riboflavin) within the cells” value was “smaller than those in the control”. Moreover, the “spheroid formation, spheroids of 0.1 to 0.2 mm and larger than 0.2 mm” value in experiment [6] is reported as “spheroid formation was suppressed”. Further, in experiment [7], the “number of spheroids of 0.1 mm or smaller” value is on record as “increased”; the “spheroid formation, spheroids of 0.1 to 0.2 mm and larger than 0.2 mm” value was “spheroid formation was suppressed”.
